The results in this text go back to ChEMBL document CHEMBL4118120, “Identification of a novel selective small-molecule inhibitor of protein arginine methyltransferase 5 (PRMT5) by virtual screening, resynthesis and biological evaluations” (Bioorg Med Chem Lett, 2018).

The source made the active and inactive calls. No cut-off for these calls is given here.

In experiment [1] the target is T1, PRMT5/MEP50 complex (Homo sapiens) (UniProt O14744+Q9BQA1). Description: Inhibition of recombinant human N-terminal FLAG-tagged PRMT5 (2 to end residues) /human N-terminal His-tagged MEP50 (2 to end residues) expressed in HEK293F cells at 100 uM using substrate pretreated for 15 mins followed by substrate and [3H]-SAM addition measured after 60 mins by scintillation proximity assay relative to control. It counts as cell-based.

Experiment [2] addresses T2, PRMT5/MEP50 complex (Homo sapiens, UniProt O14744). Description: Inhibition of recombinant human N-terminal FLAG-tagged PRMT5 (2 to end residues) /human N-terminal His-tagged MEP50 (2 to end residues) expressed in HEK293F cells using substrate pretreated for 15 mins followed by substrate and [3H]-SAM addition measured after 60 mins by scintillation proximity assay. It counts as cell-based.

For experiment [3], the target named is T2, PRMT5/MEP50 complex. Kind of experiment: Inhibition of recombinant human N-terminal FLAG-tagged PRMT5 (2 to end residues) /human N-terminal His-tagged MEP50 (2 to end residues) expressed in HEK293F cells using substrate measured after 60 mins by Alphalisa assay. It counts as cell-based.
Experiment [4] has as its target T1, PRMT5/MEP50 complex (Homo sapiens). Description: Inhibition of recombinant human N-terminal FLAG-tagged PRMT5 (2 to end residues) /human N-terminal His-tagged MEP50 (2 to end residues) expressed in HEK293F cells at 50 uM using substrate pretreated for 15 mins followed by substrate and [3H]-SAM addition measured after 60 mins by scintillation proximity assay relative to control. It counts as cell-based.

Experiment [5] addresses T2, PRMT5/MEP50 complex. Description: Inhibition of recombinant human N-terminal FLAG-tagged PRMT5 (2 to end residues) /human N-terminal His-tagged MEP50 (2 to end residues) expressed in HEK293F cells using biotinylated H4 derived peptide as substrate pretreated for 15 mins followed by substrate and [3H]-SAM addition measured after 60 mins by liquid scintillation counting method.

Experiment [6] concerns the target Protein arginine N-methyltransferase 1 (Homo sapiens, UniProt Q99873). Description: Inhibition of recombinant human N-terminal GST-tagged PRMT1 (2 to end residues) expressed in baculovirus infected Sf9 insect cells using peptide substrate pretreated for 15 mins followed by substrate/[3H]-SAM addition measured after 60 mins by scintillation proximity assay.
Experiment [7] has as its target T3, Histone-arginine methyltransferase CARM1 (Homo sapiens, UniProt Q86X55).
T3 sequence (Q86X55 whole entry): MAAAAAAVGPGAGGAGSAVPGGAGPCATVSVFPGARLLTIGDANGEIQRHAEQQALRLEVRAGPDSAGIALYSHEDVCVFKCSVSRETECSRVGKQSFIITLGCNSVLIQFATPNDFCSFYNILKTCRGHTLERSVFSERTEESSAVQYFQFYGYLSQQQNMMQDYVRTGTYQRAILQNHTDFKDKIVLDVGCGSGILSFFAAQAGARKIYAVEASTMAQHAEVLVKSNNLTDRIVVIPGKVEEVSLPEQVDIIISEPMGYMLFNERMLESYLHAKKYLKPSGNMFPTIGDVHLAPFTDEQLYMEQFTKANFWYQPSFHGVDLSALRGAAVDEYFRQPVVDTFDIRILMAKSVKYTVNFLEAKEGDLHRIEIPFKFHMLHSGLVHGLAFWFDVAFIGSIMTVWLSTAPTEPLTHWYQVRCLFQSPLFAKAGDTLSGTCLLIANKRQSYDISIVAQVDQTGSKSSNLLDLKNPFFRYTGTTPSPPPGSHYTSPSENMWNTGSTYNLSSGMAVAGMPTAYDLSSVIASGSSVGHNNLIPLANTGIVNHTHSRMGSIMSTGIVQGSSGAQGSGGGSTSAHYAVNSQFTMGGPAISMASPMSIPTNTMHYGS
Description: Inhibition of recombinant human N-terminal FLAG-tagged CARM1 (2 to end residues) expressed in HEK293F cells pretreated for 15 mins followed by substrate addition measured after 60 mins by Alphalisa assay. Format: cell-based.

Experiment [8] concerns MV4-11. Kind of experiment: Antiproliferative activity against human MV411 cells after 4 days by Celltiiter-Glo luminescence cell viability assay. The note with it: MV4-11, 96 h.
For experiment [9], the target named is Protein arginine N-methyltransferase 5 (Homo sapiens) (UniProt O14744). Description: Inhibition of PRMT5 in human MV411 cells assessed as upregulation of Gas1 expression at 30 uM by SYBR green dye based RT-qPCR analysis. It counts as cell-based.
Chain of Protein arginine N-methyltransferase 5 (Homo sapiens) (O14744 whole entry): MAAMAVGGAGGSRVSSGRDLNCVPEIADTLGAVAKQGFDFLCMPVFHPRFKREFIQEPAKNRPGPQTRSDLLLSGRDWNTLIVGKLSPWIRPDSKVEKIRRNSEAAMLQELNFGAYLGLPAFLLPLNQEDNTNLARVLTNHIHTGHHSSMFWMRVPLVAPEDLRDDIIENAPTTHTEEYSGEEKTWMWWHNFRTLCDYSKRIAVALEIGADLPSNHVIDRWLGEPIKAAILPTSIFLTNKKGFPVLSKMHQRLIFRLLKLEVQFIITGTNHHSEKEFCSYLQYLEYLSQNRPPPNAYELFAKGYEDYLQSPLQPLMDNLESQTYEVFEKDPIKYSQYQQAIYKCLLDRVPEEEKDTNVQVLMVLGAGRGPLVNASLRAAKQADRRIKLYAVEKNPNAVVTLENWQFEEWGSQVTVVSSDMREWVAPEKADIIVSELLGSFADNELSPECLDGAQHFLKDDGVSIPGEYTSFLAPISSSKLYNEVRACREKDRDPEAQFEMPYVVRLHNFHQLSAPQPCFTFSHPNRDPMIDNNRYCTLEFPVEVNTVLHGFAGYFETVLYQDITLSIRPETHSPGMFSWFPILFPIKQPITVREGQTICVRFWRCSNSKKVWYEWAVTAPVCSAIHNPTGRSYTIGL

T2 sequence (O14744 whole entry): as above
T2 sequence (Q9BQA1 whole entry, further chain): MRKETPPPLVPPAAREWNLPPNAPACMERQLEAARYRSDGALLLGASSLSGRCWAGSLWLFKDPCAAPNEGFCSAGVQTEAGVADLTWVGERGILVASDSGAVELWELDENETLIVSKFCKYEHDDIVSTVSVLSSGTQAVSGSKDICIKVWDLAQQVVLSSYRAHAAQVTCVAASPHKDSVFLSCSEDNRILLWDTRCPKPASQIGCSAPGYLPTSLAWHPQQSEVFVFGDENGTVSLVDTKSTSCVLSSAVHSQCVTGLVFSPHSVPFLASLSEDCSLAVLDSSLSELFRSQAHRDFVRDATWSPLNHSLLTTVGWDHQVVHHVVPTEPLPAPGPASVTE
Chain of Protein arginine N-methyltransferase 1 (Q99873 whole entry): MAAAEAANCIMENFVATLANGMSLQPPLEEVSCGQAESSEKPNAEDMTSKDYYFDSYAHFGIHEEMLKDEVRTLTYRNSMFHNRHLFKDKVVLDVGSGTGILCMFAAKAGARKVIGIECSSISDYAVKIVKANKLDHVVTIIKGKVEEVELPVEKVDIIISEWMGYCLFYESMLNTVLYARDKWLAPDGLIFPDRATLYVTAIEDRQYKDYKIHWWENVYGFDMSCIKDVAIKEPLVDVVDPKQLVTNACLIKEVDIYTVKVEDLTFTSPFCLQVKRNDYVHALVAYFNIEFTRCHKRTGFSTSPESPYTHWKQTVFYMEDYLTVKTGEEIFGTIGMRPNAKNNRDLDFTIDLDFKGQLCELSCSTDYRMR

In the case of `CCN(CC)CCCNC(=O)c1ccc(OC)c([N+](=O)[O-])c1`, the inhibition in experiment [1] was more than 50%. Besides, in experiment [2], the IC50 worked out at 42 µM. Turning to `NC(=O)N/N=C/c1ccc(-c2ccc(Cl)cc2)o1`, in experiment [3], the IC50 came out at 0.57 µM. Regarding `COc1cc(Br)c(Br)c(/C=N/c2cccc(-c3nc4ccccc4[nH]3)c2)c1O`, in experiment [1], the inhibition is more than 50%. The IC50 in experiment [2] was determined as 48 µM.

`CCCOc1ccc(Nc2nc(-c3cc4cc(OC)ccc4oc3=O)cs2)cc1`: in experiment [4], the inhibition is 7%. The same measure, in the same setting: under `COc1ccc(OC)c(Nc2nc(-c3ccc(Cl)cc3Cl)cs2)c1` stands 20%.

For `COc1ccccc1Nc1nc(-c2ccc3ccccc3c2)cs1`, the inhibition in experiment [4] is 6%. Consider `COc1ccc(-c2csc(NC(=S)NC(=O)c3ccc(C(C)(C)C)cc3)n2)cc1Br`, for which the inhibition in [4] came to 9%.

As for `Cc1cc(-c2csc(Nc3ccc(O)c(C(=O)O)c3)n2)ccc1F`, the IC50 in [2] came to 22 µM. For the same compound, in experiment [4], the inhibition is 71%. As for `COc1ccc(Nc2nc(-c3ccc(OCc4ccc([N+](=O)[O-])cc4)cc3)cs2)cc1`, the inhibition in experiment [4] turned out to be 0%. Consider `OC(CNCc1c(OCc2ccccc2)ccc2ccccc12)c1ccccc1` (configuration not stated), for which the IC50 in experiment [5] is 2.8 µM. Take `CCOc1cc(C(=O)Nc2nc(-c3ccc(C)cc3C)cs2)cc(OCC)c1OCC`: the inhibition in experiment [4] amounted to 0%. Same read-out and setting: under `COc1ccc(Nc2nc(-c3ccc(OCc4ccc(Br)cc4)cc3)cs2)cc1` stands 0%; under `COc1ccc(-c2csc(Nc3ccc(Cl)c(Cl)c3)n2)cc1`, 28.1%. Still for that read-out and setting: under `COc1cccc(Nc2nc(-c3ccc(OC)c(Br)c3)cs2)c1` stands 27.4%; under `COc1ccc(-c2csc(Nc3ccc4c(c3)OCO4)n2)cc1Br`, 25%; under `CCOc1ccc(-c2csc(Nc3ccc(Cl)cc3)n2)cc1[N+](=O)[O-]`, 25%.

Turning to `COc1ccc(Br)cc1C(=O)NC(=S)Nc1nc(-c2ccccc2)cs1`, the inhibition in experiment [4] is 8%. Same read-out and setting: as for `COc1ccc(Cl)cc1C(=O)Nc1nc(-c2ccc(C)c(C)c2)cs1`, the figure is 3.5%; as for `COc1cc(Nc2nc(-c3cc(C)ccc3C)cs2)c(OC)cc1Cl`, 24%.

Regarding `Cc1ccc(C)c(-c2csc(Nc3ccc(O)c(C(=O)O)c3)n2)c1`, the inhibition is more than 50% in [1] and 80% in experiment [4]. In experiment [2], the IC50 was 35 µM. For `COc1cc(Cl)c(OC)c(Nc2nc(-c3ccc(C)cc3)cs2)c1`, in experiment [4], the inhibition was 33%.

`O=C(O)COc1ccc(Br)cc1-c1csc(Nc2ccc(Br)cc2)n1`: the IC50 in experiment [2] was determined as 44 µM. For the same compound, the inhibition in experiment [4] is 61%. Turning to `CC[n+]1c(-c2ccccc2)csc1Nc1ccc(O)c(C(=O)O)c1`, in experiment [4], the inhibition is 7%. For `COc1ccccc1Nc1nc(-c2cc3cc(Br)ccc3oc2=O)cs1`, the inhibition in experiment [4] was 9%. On the same count and under the same terms, as for `COc1ccc(Nc2nc(-c3cc4ccccc4o3)cs2)cc1`, the figure is 10%; as for `COc1ccc(-c2csc(NC3=CS(=O)(=O)c4ccccc43)n2)cc1OC`, 21%; as for `COc1ccc(-c2csc(Nc3ccc(C)c(Cl)c3)n2)cc1F`, 26.4%. On to `COc1ccc(-c2csc(Nc3ccc(O)c(C(=O)O)c3)n2)cc1C`, for which the IC50 is 14 µM in experiment [2], more than 100 µM in experiment [6] and more than 100 µM in [7]. Besides, the inhibition in [4] was found to be 95%. This compound also returned an EC50 in experiment [8] of 22.5 µM. The inhibition result in [9] was “Active”. As to `COc1ccc(-c2csc(NC(=O)c3ccccc3Cl)n2)cc1C`, the inhibition in [4] worked out at 3.5%. Still for that read-out and setting: under `CCOc1ccccc1Nc1nc(-c2cc3cc(OC)ccc3oc2=O)cs1` stands 0%. On the same count and under the same terms, as for `COc1ccc(OC)c(Nc2nc(-c3ccc4ccccc4c3)cs2)c1`, the figure is 23%.
